# According to patent US12077537B2 (Gilead Sciences, Inc., priority 2020, dated 2024):
# Tested on: HIV-IIIb
# Assay: Antiviral assay in MT4 cells
# Assay type: cell-based
# Conditions: Human immunodeficiency virus 1, MT4, 120 h; MT-4 cells mixed with HIV-IIIb at m.o.i. 0.003; 5 days at 37° C.; CellTiter-Glo luminescence; 50% decrease in signal, a measure of HIV-1 replication
# Protocol: Antiviral Assay in MT4 Cells For the antiviral assay, 40 μL of a concentration required to achieve a final effective 1× test concentration of 3-fold serially diluted compound in culture medium with 10% FBS was added to each well of a 384-well plate (10 concentrations) in quadruplicate. MT-4 cells were next mixed with HIV-IIIb at an m.o.i of 0.003 for 1 hour, after which time 35 μL of virus/cell mixture (2000 cells) was immediately added to each well containing 40 μL of diluted compound. The plates were then incubated at 37° C. for 5 days. After 5 days of incubation, 25 μl of 2× concentrated CellTiter-Glom Reagent (catalog #G7571, Promega Biosciences, Inc., Madison, WI) was added to each well containing MT-4 cells. Cell lysis was carried out by incubating at room temperature for 10 min and then chemiluminescence was read.
row,EC50 [nM],Structure (SMILES)
1,7990,"O=C(Cn1nc(C(F)F)c2c1C(F)(F)CCC2(F)F)N[C@H](Cc1cc(F)cc(F)c1)c1nc2ncsc2cc1-c1ccc(F)cc1 [Compound 17, (R)-2-(3-(difluoromethyl)-4,4,7,7-tetrafluoro-4,5,6,7-tetrahydro-1H-indazol-1-yl)-N-(2-(3,5-difluorophenyl)-1-(6-(4-fluorophenyl)thiazolo[4,5-b]pyridin-5-yl)ethyl)acetamide]"
2,254,"NC(=O)c1cc(-c2cc3sc(N4CCOCC4)nc3nc2C(Cc2cc(F)cc(F)c2)NC(=O)Cn2nc(C(F)F)c3c2C(F)(F)CCC3(F)F)ccc1F (stereo not shown) [Compound 18, 5-(5-(1-(2-(3-(difluoromethyl)-4,4,7,7-tetrafluoro-4,5,6,7-tetrahydro-1H-indazol-1-yl)acetamido)-2-(3,5-difluorophenyl)ethyl)-2-morpholinothiazolo[4,5-b]pyridin-6-yl)-2-fluorobenzamide]"
3,1050,"Cc1cc(Nc2nc3nc(C(Cc4cc(F)cc(F)c4)NC(=O)Cn4nc(C(F)F)c5c4C(F)(F)CCC5(F)F)c(-c4ccc(F)c(C(N)=O)c4)cc3s2)[nH]n1 (stereo not shown) [Compound 19, 5-(5-(1-(2-(3-(difluoromethyl)-4,4,7,7-tetrafluoro-4,5,6,7-tetrahydro-1H-indazol-1-yl)acetamido)-2-(3,5-difluorophenyl)ethyl)-2-((3-methyl-1H-pyrazol-5-yl)amino)thiazolo[4,5-b]pyridin-6-yl)-2-fluorobenzamide]"
4,303,"CN(C)CCNc1nc2nc(C(Cc3cc(F)cc(F)c3)NC(=O)Cn3nc(C(F)F)c4c3C(F)(F)CCC4(F)F)c(-c3ccc(F)c(C(N)=O)c3)cc2s1 (stereo not shown) [Compound 20, 5-(5-(1-(2-(3-(difluoromethyl)-4,4,7,7-tetrafluoro-4,5,6,7-tetrahydro-TH-indazol-1-yl)acetamido)-2-(3,5-difluorophenyl)ethyl)-2-((2-(dimethylamino)ethyl)amino)thiazolo[4,5-b]pyridin-6-yl)-2-fluorobenzamide]"
5,≥ 53200,"CN(C)CCNc1nc2nc(C(Cc3cc(F)cc(F)c3)NC(=O)Cn3nc(C(F)F)c4c3C(F)(F)CCC4(F)F)c(-c3ccc(F)c(C#N)c3)cc2s1 (stereo not shown) [Compound 21, N-(1-(6-(3-cyano-4-fluorophenyl)-2-((2-(dimethylamino)ethyl)amino)thiazolo[4,5-b]pyridin-5-yl)-2-(3,5-difluorophenyl)ethyl)-2-(3-(difluoromethyl)-4,4,7,7-tetrafluoro-4,5,6,7-tetrahydro-1H-indazol-1-yl)acetamide]"
6,184,"CC(C)(O)C#CC1(Cl)Nc2nc(C(Cc3cc(F)cc(F)c3)NC(=O)Cn3nc(C(F)F)c4c3C(F)(F)CCC4(F)F)c(-c3ccc(F)c(C(N)=O)c3)cc2S1 (stereo not shown) [Compound 22, 5-(2-chloro-5-(1-(2-(3-(difluoromethyl)-4,4,7,7-tetrafluoro-4,5,6,7-tetrahydro-1H-indazol-1-yl)acetamido)-2-(3,5-difluorophenyl)ethyl)-2-(3-hydroxy-3-methylbut-1-yn-1-yl)-2,3-dihydrothiazolo[4,5-b]pyridin-6-yl)-2-fluorobenzamide]"
7,1930,"O=C(Cn1nc(C(F)F)c2c1C(F)(F)[C@@H]1C[C@H]21)N[C@@H](Cc1cc(F)cc(F)c1)c1ccc2sc(-c3ccc4c(c3)C(=O)NC4)nc2n1 [Compound 23-1, 2-((3bS,4aR)-3-(difluoromethyl)-5,5-difluoro-3b,4,4a,5-tetrahydro-1H-cyclopropa[3,4]cyclopenta[1,2-c]pyrazol-1-yl)-N—((S)-2-(3,5-difluorophenyl)-1-(2-(3-oxoisoindolin-5-yl)thiazolo[4,5-b]pyridin-5-yl)ethyl)acetamide]"
8,984,"CSc1nc2nc([C@H](Cc3cc(F)cc(F)c3)NC(=O)Cn3nc(C(F)F)c4c3C(F)(F)[C@@H]3C[C@H]43)c(-c3ccc4c(c3)C(=O)NC4)cc2s1 [Compound 23-2, 2-((3bS,4aR)-3-(difluoromethyl)-5,5-difluoro-3b,4,4a,5-tetrahydro-1H-cyclopropa[3,4]cyclopenta[1,2-c]pyrazol-1-yl)-N—((S)-2-(3,5-difluorophenyl)-1-(2-(methylthio)-6-(3-oxoisoindolin-5-yl)thiazolo[4,5-b]pyridin-5-yl)ethyl)acetamide]"
9,32.7,"NC(=O)c1cc(-c2cc3sc(N4CCN(C5COC5)CC4)nc3nc2[C@H](Cc2cc(F)cc(F)c2)NC(=O)Cn2nc(C(F)(F)F)c3c2C(F)(F)[C@@H]2C[C@H]32)ccc1F [Compound 24, 5-(5-((S)-1-(2-((3bS,4aR)-5,5-difluoro-3-(trifluoromethyl)-3b,4,4a,5-tetrahydro-1H-cyclopropa[3,4]cyclopenta[1,2-c]pyrazol-1-yl)acetamido)-2-(3,5-difluorophenyl)ethyl)-2-(4-(oxetan-3-yl)piperazin-1-yl)thiazolo[4,5-b]pyridin-6-yl)-2-fluorobenzamide]"
10,111,"NC(=O)c1cc(-c2cc3sc(N4CCN(c5cncnc5)CC4)nc3nc2[C@H](Cc2cc(F)cc(F)c2)NC(=O)Cn2nc(C(F)(F)F)c3c2C(F)(F)[C@@H]2C[C@H]32)ccc1F [Compound 25, 5-(5-((S)-1-(2-((3bS,4aR)-5,5-difluoro-3-(trifluoromethyl)-3b,4,4a,5-tetrahydro-1H-cyclopropa[3,4]cyclopenta[1,2-c]pyrazol-1-yl)acetamido)-2-(3,5-difluorophenyl)ethyl)-2-(4-(pyrimidin-5-yl)piperazin-1-yl)thiazolo[4,5-b]pyridin-6-yl)-2-fluorobenzamide]"
11,114,"NC(=O)c1cc(-c2cc3sc(N4CCN(c5ccncc5)CC4)nc3nc2[C@H](Cc2cc(F)cc(F)c2)NC(=O)Cn2nc(C(F)(F)F)c3c2C(F)(F)[C@@H]2C[C@H]32)ccc1F [Compound 26, 5-(5-((S)-1-(2-((3bS,4aR)-5,5-difluoro-3-(trifluoromethyl)-3b,4,4a,5-tetrahydro-1H-cyclopropa[3,4]cyclopenta[1,2-c]pyrazol-1-yl)acetamido)-2-(3,5-difluorophenyl)ethyl)-2-(4-(pyridin-4-yl)piperazin-1-yl)thiazolo[4,5-b]pyridin-6-yl)-2-fluorobenzamide]"
12,52.3,"NC(=O)c1cc(-c2cc3sc(N4C[C@@H]5C[C@H]4CN5C4COC4)nc3nc2[C@H](Cc2cc(F)cc(F)c2)NC(=O)Cn2nc(C(F)(F)F)c3c2C(F)(F)[C@@H]2C[C@H]32)ccc1F [Compound 27, 5-(5-((S)-1-(2-((3bS,4aR)-5,5-difluoro-3-(trifluoromethyl)-3b,4,4a,5-tetrahydro-1H-cyclopropa[3,4]cyclopenta[1,2-c]pyrazol-1-yl)acetamido)-2-(3,5-difluorophenyl)ethyl)-2-((1S,4S)-5-(oxetan-3-yl)-2,5-diazabicyclo[2.2.1]heptan-2-yl)thiazolo[4,5-b]pyridin-6-yl)-2-fluorobenzamide]"
13,300,"NC(=O)c1cc(-c2cc3sc(N4CCN(c5ccc(-c6ncc[nH]6)cc5)CC4)nc3nc2[C@H](Cc2cc(F)cc(F)c2)NC(=O)Cn2nc(C(F)(F)F)c3c2C(F)(F)[C@@H]2C[C@H]32)ccc1F [Compound 28-1, 5-(2-(4-(4-(1H-imidazol-2-yl)phenyl)piperazin-1-yl)-5-((S)-1-(2-((3bS,4aR)-5,5-difluoro-3-(trifluoromethyl)-3b,4,4a,5-tetrahydro-1H-cyclopropa[3,4]cyclopenta[1,2-c]pyrazol-1-yl)acetamido)-2-(3,5-difluorophenyl)ethyl)thiazolo[4,5-b]pyridin-6-yl)-2-fluorobenzamide]"
14,121,"NC(=O)c1cc(-c2cc3sc(N4CCC5(CC4)CNC(=O)O5)nc3nc2[C@H](Cc2cc(F)cc(F)c2)NC(=O)Cn2nc(C(F)(F)F)c3c2C(F)(F)[C@@H]2C[C@H]32)ccc1F [Compound 29, 5-(5-((S)-1-(2-((3bS,4aR)-5,5-difluoro-3-(trifluoromethyl)-3b,4,4a,5-tetrahydro-1H-cyclopropa[3,4]cyclopenta[1,2-c]pyrazol-1-yl)acetamido)-2-(3,5-difluorophenyl)ethyl)-2-(2-oxo-1-oxa-3,8-diazaspiro[4.5]decan-8-yl)thiazolo[4,5-b]pyridin-6-yl)-2-fluorobenzamide]"
15,47.3,"CC1CN(c2nc3nc([C@H](Cc4cc(F)cc(F)c4)NC(=O)Cn4nc(C(F)(F)F)c5c4C(F)(F)[C@@H]4C[C@H]54)c(-c4ccc(F)c(C(N)=O)c4)cc3s2)CC(C)N1C1COC1 (stereo partly drawn) [Compound 30, 5-(5-((S)-1-(2-((3bS,4aR)-5,5-difluoro-3-(trifluoromethyl)-3b,4,4a,5-tetrahydro-1H-cyclopropa[3,4]cyclopenta[1,2-c]pyrazol-1-yl)acetamido)-2-(3,5-difluorophenyl)ethyl)-2-(3,5-dimethyl-4-(oxetan-3-yl)piperazin-1-yl)thiazolo[4,5-b]pyridin-6-yl)-2-fluorobenzamide]"

row,Structure (SMILES),EC50 [nM]
1,"C[Si](C)(C)CCn1ccnc1-c1ccc(N2CCN(c3nc4nc([C@H](Cc5cc(F)cc(F)c5)NC(=O)Cn5nc(C(F)(F)F)c6c5C(F)(F)[C@@H]5C[C@H]65)c(-c5ccc(F)c(C(N)=O)c5)cc4s3)CC2)cc1 [Compound 28-2, 5-(5-((S)-1-(2-((3bS,4aR)-5,5-difluoro-3-(trifluoromethyl)-3b,4,4a,5-tetrahydro-1H-cyclopropa[3,4]cyclopenta[1,2-c]pyrazol-1-yl)acetamido)-2-(3,5-difluorophenyl)ethyl)-2-(4-(4-(1-(2-(trimethylsilyl)ethyl)-1H-imidazol-2-yl)phenyl)piperazin-1-yl)thiazolo[4,5-b]pyridin-6-yl)-2-fluorobenzamide]",≥ 53200
